Laboratory results reported in ChEMBL document CHEMBL1150370, “Pestaloficiols A-E, bioactive cyclopropane derivatives from the plant endophytic fungus Pestalotiopsis fici” (Bioorg Med Chem, 2008).
Counter-ions that a name gives are not always drawn.

Experiments:
[1] = test system: Human immunodeficiency virus 1; assay: Antiviral activity against HIV1 in human C8116 cells assessed as reduction of p24 protein level after 4 days by ELISA; assay type: functional, organism-based; conditions: Human immunodeficiency virus 1, C8116, 96 h
[2] = Cytotoxicity against human C8116 cells after 4 days by MTT assay; assay type: cell-based

Row | Structure (SMILES) | EC50 [1] | CC50 at 96 h [2]
1 | CC(C)(C)NC(=O)[C@@H]1CN(Cc2cccnc2)CCN1C[C@@H](O)C[C@@H](Cc1ccccc1)C(=O)N[C@H]1c2ccccc2C[C@H]1O [INDINAVIR SULFATE] | 0.00881 µM | 
2 | CC1(C)CC(=O)C2=C(O1)[C@@]1(C[C@H]1C(C)(C)O)[C@@H](O)[C@@H](O)C2 [PESTALOFICIOL D] | 26 µM | > 200 µM
3 | CC1(C)CC(=O)C2=C(O1)[C@]1(C[C@@H]1C(C)(C)O)[C@@H](O)[C@@H](O)C2 [PESTALOFICIOL B] | 26 µM | > 200 µM
4 | CC1(C)CC(=O)C2=C(O1)[C@@]13C[C@@H]1C(C)(C)O[C@H]3[C@@H](O)C2 [PESTALOFICIOL A] | 26 µM | > 200 µM
